These results are taken from a melting point compilation (Tetko et al.; mined from patent text by program, amines drawn as free bases though some values may be those of a salt).

Structures are written as SMILES.

The melting point is the temperature, or range, at which the solid turns liquid. The compound `Cc1nc2ncc(C(=O)NCc3ccc(Cl)cc3)c(O)c2cc1I` showed a melting point of 276 to 277 °C.
Regarding `Cc1c(C#N)ccc2nc(N)nc(N)c12`, the melting point was more than 270 °C.
As for `CC(=O)Nc1ccc(C[C@H](NC(=O)N(CCO)CCc2ccccc2)C(=O)NCCN(C)C)cc1`, the figure is 132 to 137 °C; as for `CC(=O)NC1(c2ccc(C(C)O)cc2)CC1` (centres undefined), 114 to 116 °C.
Next, `CC(C)(C)[Si](C)(C)OCc1ccc(C(=NO)C(F)(F)F)cc1`: 63 to 65 °C.
On to `Cc1cccc(C)c1NC=O`, for which the melting point was 163 to 164 °C.
In turn, `CC(=NOCCOc1ccc(CC2SC(=O)NC2=O)cc1)c1ccc(-c2ccccc2)cc1` (centres undefined) returned a melting point of 164 to 166 °C.
In the case of `COc1cc2c(cc1OC)C(c1cc(N)ccc1Cl)=NN=C(C)C2`, the melting point lay in the range of 188 to 190 °C.
`Cc1ccc(C(N)=O)cc1Br` returned a melting point of 178 to 179 °C.
Turning to `Cc1cccc(-c2nc3ccc(Cl)nn3c2-c2ccnc(Nc3ccc(F)cc3C)c2)c1`, the melting point was 191 to 192 °C.
As for `COCCOCC(=O)C1CCC2C3CCC4CC(O)CCC4(C)C3C(=O)CC12C` (centres undefined), the melting point lay in the range of 115 to 121 °C.
`CCOC(=O)C1C(=O)N(c2ccc(Cl)c(Cl)c2)N=C1C` (centres undefined): the melting point lay in the range of 147 to 148 °C.
Next, `COC(=O)c1cc2cc(OC)c(OC)cc2cn1`: 215 °C; `CSc1c(O[C@H]2CC[C@H](N)CC2)ccc2[nH]ncc12`: 138 to 140 °C; `COc1c(Cl)ccc(Cl)c1C(=O)NOCC(=O)O`: 145 to 154 °C.
The compound `CCO[C@@H]1C[C@@H](C(=O)NC)N(S(=O)(=O)c2ccc(Cl)c(COc3cccc4c(-n5ccnc5)cc(C)nc34)c2Cl)C1` registered a melting point of 80 °C.
Next, `COc1cncc(OC)c1CCCOc1cccnc1Cc1cccc(Br)c1`: 153 to 165 °C; `O=C(/C=C/c1cccc(Br)c1)NC1CC1`: 110 to 111 °C.
Next, `Nc1ccccc1-c1csc2nc(C34CC5CC(CC(C5)C3)C4)cn12`: 160 to 162 °C; `CCOC(=O)C=Nc1cc(Cl)ccc1C(=O)O`: 166 to 167 °C.
The compound `CC(=O)NC[C@H]1CN(c2ccc(-n3nccc3-c3cccnc3)c(F)c2)C(=O)O1` had a melting point of 83.7 to 85.9 °C.
Next, `O=C(c1nc2ccc(O)cc2[nH]1)N1CCC(=Cc2ccccc2)CC1`: 148 °C; `O=C(CCN1CCCC1)Nc1ccc2c(=O)c3ccc(NC(=O)CCN4CCCC4)cc3[nH]c2c1`: more than 320 °C.
Take `CCOC(=O)c1cc2c(nc(C)n2C)c2c1C(=O)CC1(Cc3ccccc3C1)N2`: the melting point was 205 to 206 °C.
Next, `COC(=O)c1cc(OC)cc(-c2ccc(NC(C)=O)cc2)n1`: 223 to 224 °C; `CNc1nc2ccccc2n1CCO`: more than 200 °C; `CCNCC1CCN(c2c(F)cc3c(=O)c(C(=O)O)cn(C4CC4)c3c2OC)C1` (centres undefined): 217 to 219 °C.
Next, `COc1cc(OC)nc(OC(C(=O)O)C(C)(C)CO)n1` (centres undefined): 104 to 110 °C; `Clc1ccc2c(C3CCNCC3)n[nH]c2c1`: 174 to 176 °C; `N#Cc1ccc(C(=CC(=O)N2CCCCC2)n2ccnc2)cc1`: 160 to 165 °C.
In turn, `CCN(CC)c1ccc2c(c1)[C@@H]1[C@H](C2)c2ccc(N(CC)CC)cc2N1C(C)=O` (relative stereo) showed a melting point of 137 to 138 °C.
`CC1(C)CC(O)CC(C)(C)N1N=Nc1ccccc1Br` displayed a melting point of 81 °C.
As to `O=C(O)c1ccc(OCC2CN(C(=O)c3ccccc3)C(=O)O2)cc1` (centres undefined), the melting point was 219 to 221 °C.
Next, `Cc1cc2[nH]cc(CSCC(=O)N3CC=C(c4ccccc4)CC3)c2cc1C`: 167 to 169 °C; `COc1ccc(CNc2cc(C(=O)Nc3ccccc3)ccc2OC)cc1`: 173 to 174 °C; `O=C(c1ccc(O)cc1)c1ccc([N+](=O)[O-])cc1`: 196 °C.
Next, `NC(=O)C1(N2CCCCC2)CCN(Cc2ccccc2)CC1`: 150 to 160 °C; `COC(=O)Nc1c(Br)cc(S(=O)(=O)N(C)C)cc1Br`: 177 to 178 °C; `Cc1ccc(O)c(-c2ccc(Br)cc2)n1`: 196 to 199 °C.
Next, `N#CN=C(Nc1cccnc1)NC1CCCC1`: 155 to 156 °C.
For the compound `CN(C(=O)Nc1ccccc1CCc1cc(C(C)(C)C)c(O)c(C(C)(C)C)c1)C1CCN(Cc2ccccc2)CC1`, the melting point was 144 to 146 °C.
`CC1(c2cc3ccccc3[nH]2)CCCCC1` showed a melting point of 50 °C.
The compound `COc1cccc2c3c([nH]c12)CCNC3=O` displayed a melting point of 255 to 258 °C.
Next, `CC(C)c1cc(O)c(O)c(C(=O)O)c1`: 151 to 152 °C.
As for `CCn1cc(C(=O)O)c(=O)c2cc(F)c(N3Cc4ccc(N)cc4C3)cc21`, the melting point is more than 300 °C.
As for `CCN(CC)CCc1nc(Cn2cnc3c2c(=O)n(C)c(=O)n3C)no1`, the figure is 69 to 70 °C.
Consider `Nc1nc2c(ncn2C2CCC(CO)O2)c(=O)[nH]1` (centres undefined), for which the melting point is more than 250 °C.
`Cc1ccc(S(=O)(=O)NC(=O)C2C(=O)CC(C(C)(C)C)CC2=O)cc1` (centres undefined) displayed a melting point of 162 to 163 °C.
As for `COC(=O)CCCCCCC(=O)Nc1ccc(C(=O)NN=C2C(=O)Nc3ccc(I)cc32)cc1`, the figure is 268 °C.
Next, `CC(C)(C)OC(=O)Nc1cc(OCc2ccccc2)c2ccc(C#N)cc2c1`: 145 °C; `CCOCc1nc2c(N)nc3ccccc3c2s1`: 149 to 151 °C.
Regarding `O=C(O)c1c(-c2ccccc2)nc2c(C(F)(F)F)cccc2c1O`, the melting point is 204 °C.
The compound `CN1CCN(Cc2c(Cl)cccc2Cl)C(C2=NCCN2)C1` (centres undefined) yielded a melting point of 182 to 184 °C.
Next, `COC(=O)NC1=NCC(c2cccc(OC)c2)CN1` (centres undefined): 218 to 221 °C; `O=C(/C=C/C=C/c1ccc(Cl)cc1)NCCCC(=O)NO`: 164 to 166 °C; `CCN1C(=O)Cc2cnc(N3CCN(Cc4ccccc4)CC3)nc21`: 110 to 113 °C.
With `CC(C)N(Sc1nc2ccccc2s1)C(C)(C)C`, the melting point was 68 to 70 °C.
Next, `Cc1ccc(NC(=O)C=Cc2ccccc2)cc1NC(=O)C=Cc1ccccc1`: 217 to 219 °C.
For `CCN1CC2=C(C1)CN(c1c(F)cc3c(=O)c(C(=O)O)cn(C4CC4)c3c1F)C2`, the melting point lay in the range of 188 to 192 °C.
`CS(=O)(=O)c1ccc(-c2cc(C(=O)CCCCCO)nn2C2CCCCC2)cc1` yielded a melting point of 125 to 127 °C.
In the case of `CNC(=O)C1CN(CCCC(c2ccc(F)cc2)c2ccc(F)cc2)CCN1CC(=O)Nc1c(C)cc(N)cc1C` (centres undefined), the melting point was 112 °C.
As for `CN(C)C(=O)c1c(C(=O)CBr)c2cc(Cl)ccc2n1C(=O)OC(C)(C)C`, the figure is 110 to 115 °C; as for `COc1ccc(NC(=O)c2ccc(-c3ccc(-c4noc(C)n4)cc3)cc2)cc1N1CCN(C)CC1`, 135 to 137 °C.
In turn, `CCOC(=O)C(Cc1cc2c([N+](=O)[O-])cccc2[nH]1)[N+](=O)[O-]` (centres undefined) registered a melting point of 110 to 112 °C.
As for `COc1ccc(-c2noc(C)c2-c2ccc(OC)cc2)cc1`, the figure is 95 to 99 °C; as for `CC(C)(C)OC(=O)N[C@@H](Cc1ccccn1)C(=O)NCC(=O)c1ccc(-c2ccccc2)cc1`, 129 to 132 °C.
Compound `CN(Cc1cc2ccccc2n1C)C(=O)/C=C/c1ccc(N2C(=O)CCC2=O)nc1` returned a melting point of 185 to 187 °C.
Next, `Cc1nc(N2CCN(CCCC(F)(F)F)C2=O)sc1C(=O)NCc1ccncc1`: 178 to 181 °C; `CC(Cc1c[nH]c2ccccc12)(NC(=O)OC1C2CC3CC(C2)CC1C3)C(=O)NCC(NC(=O)CSc1ncc[nH]1)c1ccccc1` (centres undefined): 112 to 122 °C; `Cc1[nH]c2ccc(C3=NNC(=O)NC3C)cc2c1C` (centres undefined): 292 to 296 °C.
`Cc1nc(-c2ccc(N)c(Br)c2)c[nH]1` returned a melting point of 34 to 36 °C.
Turning to `Cn1nc(-c2ncc(N)nc2-c2ccccc2)ccc1=O`, the melting point lay in the range of 202 to 204 °C.
As to `COC(=O)c1ccc(NC=O)cc1S(=O)(=O)NC(C)(C)C`, the melting point was in the range of 113 to 114 °C.
As for `COCCCNC(=O)Nc1ccc(N(C)C)cc1C(=O)NCC1CCN(C(c2ccccc2)c2ccccc2)CC1`, the figure is 191 to 193 °C; as for `Cc1ccc(C=NNc2ccc(S(N)(=O)=O)cc2)cc1`, 216 to 218 °C; as for `CCCNP(=O)(OC)N1CC(NC(=O)OCc2ccccc2)C1=O` (centres undefined), 121 to 123 °C.
In turn, `COc1ccc(-c2c(Cl)ncnc2Cl)cc1` displayed a melting point of 95 to 96 °C.
As for `COc1cccc(Cc2cc3cccc(-c4cccc(C(=O)NC5CCOCC5)c4)c3o2)c1`, the figure is 146 to 147 °C; as for `Nc1cccc(S(=O)(=O)NCc2ccccn2)c1`, 124 °C; as for `COC(=O)CNC(=O)[C@H](CSC(c1ccccc1)(c1ccccc1)c1ccccc1)NC(=O)OC(C)(C)C`, 167 to 169 °C.
As for `CCCCNc1cc(CN(Cc2ccccc2)C(C)=O)cc(S(N)(=O)=O)c1Oc1ccccc1`, the figure is 75 to 77 °C; as for `O=[N+]([O-])c1ccc(CCCCCCCCCCCCCCOCCCCCCCCCCCCCCc2ccc([N+](=O)[O-])cc2)cc1`, 57 to 60 °C.
On to `CCCCn1c(=O)c2c(NC)n[nH]c2n(Cc2ccccc2[N+](=O)[O-])c1=O`, for which the melting point is more than 300 °C.
Next, `O=C(O)C1Oc2cc(Cl)c(S(=O)(=O)c3cc(Cl)cc(Cl)c3)cc2O1` (centres undefined): 166 to 169 °C.
Consider `CC(=O)OC1CCC2(C)C(CCC3C4CCC(C(C)CC(=O)C(=O)N5CCOCC5)C4(C)CC(=O)C32)C1` (centres undefined), for which the melting point lay in the range of 122 to 123 °C.
As for `NS(=O)(=O)c1ccc(S[C@H]2CC[C@H](O)CC2)s1`, the figure is 145 to 147 °C; as for `CCCCc1nc2ccccc2n1Cc1ccc(-c2ccccc2CO)cc1`, 162 to 163 °C.
As for `OC(c1ccc(Cl)cc1)c1cccc(Br)c1` (centres undefined), the figure is 67 to 68 °C.
With `O=C(O)CCC(=O)CCC(=O)Nc1ccc(Cc2ccc(NC(=O)CCC(=O)CCC(=O)O)cc2)cc1`, the melting point lay within 158 to 160 °C.
